Test results from patent US12262710B2, “Fungicidal compounds” (SYNGENTA CROP PROTECTION AG, priority 2019, dated 2025).

Legend:
Mycosphaerella arachidis = Mycosphaerella arachidis syn. Cercospora arachidicola (brown leaf spot of peanut), liquid culture growth inhibition; assay type: cell-based; details: nutrient broth (PDB), approximately 5-6 days, photometric at 620 nm, compared to untreated control
Experimental: (§1) Conidia of the fungus from cryogenic storage were directly mixed into nutrient broth (PDB potato dextrose broth). A DMSO solution of the test compounds was placed into a microtiter plate (96-well format) and the nutrient broth containing the fungal spores was added to it. The test plates were incubated at 24° C. and the inhibition of growth was determined photometrically after approximately 5-6 5 days at 620 nm.

[1] = test system: Puccinia recondita f. sp. tritici; experiment: Puccinia recondita (brown rust), curative, wheat leaf segments; assay type: in vivo; details: foliar, 192 h, sprayed 1 day after inoculation, 8 dpi, compared to untreated control
Experimental: (§2) Wheat leaf segments are placed on agar in multiwell plates (24-well format). The leaf segments are inoculated with a spore suspension of the fungus and sprayed with test solutions 1 day after inoculation. After appropriate incubation the activity of a compound is assessed 8 dpi (days after inoculation) as curative fungicidal activity.

Glomerella lagenarium = Glomerella lagenarium syn. Colletotrichum lagenarium (anthracnose of cucurbits), liquid culture growth inhibition; assay type: cell-based; details: Colletotrichum orbiculare, nutrient broth (PDB), 72 hrs, photometric at 620 nm, compared to untreated control
Experimental: as §1, with “Glomerella lagenarium Syn. Colletotrichum lagenarium (Anthracnose of Cucurbits): Conidia” for “Conidia”, “72 hrs” for “approximately 5-6 5 days”, “nm. […]” for “nm.”

Phytophthora infestans = experiment: whole plant or invertebrate; assay type: in vivo; details: in Solanum lycopersicum, foliar, 96 h, read-out: control of Phytophthora infestans
Alternaria solani = Alternaria solani (early blight of tomatoes), tomato leaf disks; assay type: in vivo; details: foliar, inoculated 2 days after application, compared to untreated control
Experimental: Alternaria solani (Early Blight of Tomatoes) Tomato leaf disks are placed on agar in multiwell plates (24-well format) and sprayed with the formulated test compound diluted in water. The leaf disks are inoculated with a spore suspension of the fungus 2 days after application. The inoculated leaf disks are incubated at 23° C./21° C.

Plasmopara viticola = Plasmopara viticola (downy mildew of grapevine), grape vine leaf disks, preventive; assay type: in vivo; details: foliar, 168 h, 7 dpi, compared to untreated control
Experimental: (§3) Grape vine leaf disks are placed on agar in multiwell plates (24-well format) and sprayed with test solutions. After drying, the leaf disks are inoculated with a spore suspension of the fungus. After appropriate incubation the activity of a compound is assessed 7 dpi (days after inoculation) as preventive fungicidal activity.

Phakopsora pachyrhizi [2] = experiment: Example E: comparative activity against Phakopsora pachyrhizi (soybean rust), soybean leaf disks sprayed; assay type: in vivo; details: 0.025% Tween20, approx. 12 dpi
Experimental: Method: Compounds to be tested are prepared as DMSO solutions which are diluted to the appropriate concentration with 0.025% Tween20 just before spraying. Soybean leaf disks are placed on agar in multiwell plates (24-well format) and sprayed with test solutions. After drying, the leaf disks are inoculated with a spore suspension of the fungus. After appropriate incubation the activity of a compound is assessed approx. 12 dpi (days after inoculation) as preventive fungicidal activity. The data are presented as the percentage of disease control of each compound for the biological tests and testing rates described below in Table J.

[3] = test system: Erysiphe graminis f. sp. tritici; experiment: Erysiphe graminis f. sp. tritici (wheat powdery mildew), wheat leaf segments, preventive; assay type: in vivo; details: Blumeria graminis, foliar, 168 h, 7 dpi, compared to untreated control
Experimental: Wheat leaf segments are placed on agar in multiwell plates (24-well format) and sprayed with test solutions. After drying, the leaf disks are inoculated with spores of the fungus. After appropriate incubation the activity of a compound is assessed 7 dpi (days post inoculation) as preventive fungicidal activity.

Phakopsora pachyrhizi [4] = experiment: Example D: comparative activity against Phakopsora pachyrhizi (soybean rust), soybean plants sprayed, leaf disks cut from treated plants; assay type: in vivo; details: 0.1% OCHIMA, leaf disks cut one day after application, approx. 12 dpi
Experimental: Method: Soybean plants are sprayed in a spray chamber with formulated DMSO compound solutions which are diluted to the appropriate concentration with 0.1% […] (adjuvant comprising polyethoxylated sorbitol hexaoleate and tris(2-ethylhexyl) phosphate) just before spraying. Leaf disks are cut from treated plants and placed on agar into 24-well plates one day after application. After, the leaf disks are inoculated with a spore suspension of the fungus. After appropriate incubation the activity of a compound is assessed approx. 12 dpi (days after inoculation) as preventive fungicidal activity. The data are presented as the percentage of disease control of each compound for the biological tests and testing rates described below in Table 1.

Phakopsora pachyrhizi [5] = experiment: Phakopsora pachyrhizi (soybean rust), soybean leaf disks, preventive; assay type: in vivo; details: foliar, 288 h, approx. 12 dpi, compared to untreated control
Experimental: as §3, with “Soybean” for “Grape vine”, “approx. 12” for “7”

[6] = test system: Puccinia recondita f. sp. tritici; experiment: Puccinia recondita (brown rust), preventative, wheat leaf segments; assay type: in vivo; details: foliar, 192 h, 8 dpi, compared to untreated control
Experimental: as §3, with “Wheat” for “Grape vine”, “segments” for “disks”, “8” for “7”, “preventative” for “preventive”

Puccinia recondita = experiment: Example C: comparative activity against Puccinia recondita (brown rust), curative, wheat leaf segments; assay type: in vivo; details: 8 dpi
Experimental: as §2, with “Method; Wheat” for “Wheat”, “activity. The data are presented as the percentage of disease control of each compound for the biological tests and testing rates described below in table H.” for “activity.”

Monographella nivalis = Monographella nivalis syn. Microdochium nivale (snow mould, foot rot of cereals), liquid culture growth inhibition; assay type: cell-based; details: nutrient broth (PDB), 72 hrs, photometric at 620 nm, compared to untreated control
Experimental: as §1, with “72 hrs” for “approximately 5-6 5 days”, “nm. […] Cercospora arachidicola (Brown Leaf Spot of Peanut): […]” for “nm.”

Pyricularia oryzae = experiment: whole plant or invertebrate; assay type: in vivo; details: foliar, 120 h, read-out: control of Pyricularia oryzae

Structure (SMILES)	inhibition of growth at 20 ppm (Mycosphaerella arachidis)	pest or weed control at 200 ppm [1]	inhibition of growth at 20 ppm (Glomerella lagenarium)	pest or weed control at 200 ppm (Phytophthora infestans)	pest or weed control at 200 ppm (Alternaria solani)	pest or weed control at 200 ppm (Plasmopara viticola)	control (%) Phakopsora pachyrhizi (Soybean rust) (Phakopsora pachyrhizi [2]; 0.6 ppm)	control (%) Phakopsora pachyrhizi (Soybean rust) (Phakopsora pachyrhizi [2]; 2 ppm)	control (%) Phakopsora pachyrhizi (Soybean rust) (Phakopsora pachyrhizi [2]; 6 ppm)	control (%) Phakopsora pachyrhizi (Soybean rust) (Phakopsora pachyrhizi [2]; 20 ppm)	control (%) Phakopsora pachyrhizi (Soybean rust) (Phakopsora pachyrhizi [2]; 60 ppm)	control (%) Phakopsora pachyrhizi (Soybean rust) (Phakopsora pachyrhizi [2]; 200 ppm)	pest or weed control at 200 ppm [3]	control (%) Phakopsora pachyrhizi (Soybean rust) (Phakopsora pachyrhizi [4]; 6 ppm)	control (%) Phakopsora pachyrhizi (Soybean rust) (Phakopsora pachyrhizi [4]; 20 ppm)	control (%) Phakopsora pachyrhizi (Soybean rust) (Phakopsora pachyrhizi [4]; 60 ppm)	control (%) Phakopsora pachyrhizi (Soybean rust) (Phakopsora pachyrhizi [4]; 200 ppm)	pest or weed control at 200 ppm [6]	inhibition of growth at 20 ppm (Monographella nivalis)	pest or weed control at 200 ppm (Pyricularia oryzae)	other results
CO/C=C(\Oc1cc(C2CCCC2)ccc1C)C(=O)OC [E.13, methyl (Z)-2-(5-cyclopentyl-2-methyl-phenoxy)-3-methoxy-prop-2-enoate]	≥ 80%	≥ 80%	≥ 80%	≥ 80%	≥ 80%	≥ 80%	10%	10%	60%	100%	100%	100%	≥ 80%	0%	4%	46%	98%	≥ 80%	≥ 80%	≥ 80%	pest or weed control at 60 ppm (Phakopsora pachyrhizi [5]): ≥ 70%; control (%) Puccinia recondita (Brown rust), curative (Puccinia recondita; 20 ppm): 0%; control (%) Puccinia recondita (Brown rust), curative (Puccinia recondita; 60 ppm): 0%; control (%) Puccinia recondita (Brown rust), curative (Puccinia recondita; 200 ppm): 100%
CO/C=C(\Oc1cc(C2CCCCC2)ccc1C)C(=O)OC [E.15, methyl (Z)-2-(5-cyclohexyl-2-methyl-phenoxy)-3-methoxy-prop-2-enoate]	≥ 80%	≥ 80%	≥ 80%	≥ 80%	≥ 80%	≥ 80%	10%	70%	95%	100%	100%	100%	≥ 80%	0%	51%	97%	99%	≥ 80%	≥ 80%	≥ 80%	pest or weed control at 60 ppm (Phakopsora pachyrhizi [5]): ≥ 70%; control (%) Puccinia recondita (Brown rust), curative (Puccinia recondita; 20 ppm): 90%; control (%) Puccinia recondita (Brown rust), curative (Puccinia recondita; 60 ppm): 100%; control (%) Puccinia recondita (Brown rust), curative (Puccinia recondita; 200 ppm): 100%
CO/C=C(\Oc1cc(C2CCCCC2)c(F)cc1C)C(=O)OC [E.16, methyl (Z)-2-(5-cyclohexy1-4-fluoro-2-methyl-phenoxy)-3-methoxy-prop-2-enoate]	≥ 80%	≥ 80%	≥ 80%	≥ 80%	≥ 80%	≥ 80%							≥ 80%					≥ 80%	≥ 80%	≥ 80%	
